Test results taken from publication PMC11500415, “Chemical inhibition of stomatal differentiation by perturbation of the master-regulatory bHLH heterodimer via an ACT-Like domain” (Nature Communications, 2024).

Biological target: T1, MUTE_ACTLR133A_R134A (Arabidopsis thaliana, UniProt Q9M8K6, R133A/R134A)
T1 construct: MUTE-ACTL (114-202); made in house; host or cells: E. coli BL21
Experiment: ITC direct binding
Parameters: species or system A. thaliana
Settings: MUTE_ACTL R133A_R134A

T1 sequence (Q9M8K6 114-202 R133A/R134A): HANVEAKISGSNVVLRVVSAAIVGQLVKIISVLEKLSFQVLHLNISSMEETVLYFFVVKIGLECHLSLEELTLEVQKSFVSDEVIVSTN

## O=C1C(c2ccccc2)=NC(NS(=O)(=O)c2ccccc2)(c2ccccc2)N1S(=O)(=O)c1ccccc1 (stereo not shown) [Stomidazolone]
  -T△S: 5.1 ± 0.2
  Kd: 127 ± 28.5 µM
  △G: -3.8 ± 0.2
  △H: -8.9 ± 0.4
